Test results taken from PubChem BioAssay AID1845212 (Molecular Pharmacology Branch, DTP, NCI, 2023).

Each compound was assayed on NCI-H719 tumor spheroids, viability (assay: Anticancer human tumor NCI-H719 cell line growth inhibition). Details: second compound 0.0949 µM; first compound 1 µM; hits give low values; spheroids with HUVEC and MSC.
How it was run: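 Single agents and combinations were tested on spheroids built from tumor cells plus HUVEC and hMSC, at half-log dilutions starting at or near clinical Cmax, else 10 microM; final DMSO 0.25% (v/v).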
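Note: spheroids exposed to compounds for seven days; percent viability relative to DMSO vehicle control as 100%.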

| Structure (SMILES) | viability, T/C [%] |
| --- | --- |
| CC1COCCN1c1cc(-c2ccnn2C)c2ccnc(-c3ccn[nH]3)c2n1 (stereo unspecified) + CC[C@@]1(O)C(=O)OCc2c1cc1n(c2=O)Cc2cc3c(CN(C)C)c(O)ccc3nc2-1 | 3.96 |
| COc1cc(C)[nH]c(=O)c1CN1CCc2c(Cl)cc(C(OC)C3COC3)c(Cl)c2C1=O (stereo unspecified) + CC[C@@]1(O)C(=O)OCc2c1cc1n(c2=O)Cc2cc3c(CN(C)C)c(O)ccc3nc2-1 | 8.96 |
| COc1ccc([C@@H](O)c2cc(-c3ncnc4cc(N5CCOCC5)ccc34)c(F)cc2Cl)nn1 + CC[C@@]1(O)C(=O)OCc2c1cc1n(c2=O)Cc2cc3c(CN(C)C)c(O)ccc3nc2-1 | 5.16 |
| Cc1cc(C)c(CNC(=O)c2cc(-c3ccc(CN4CCOCC4)cc3)cc3c2cnn3C2CCCC2)c(=O)[nH]1 + CC[C@@]1(O)C(=O)OCc2c1cc1n(c2=O)Cc2cc3c(CN(C)C)c(O)ccc3nc2-1 | 6.02 |
| [2H]c1nc(C)nc([2H])c1-c1cc(NC[C@@H](C)c2cccc3c(C(=O)NC)ccnc23)ncn1 + CC[C@@]1(O)C(=O)OCc2c1cc1n(c2=O)Cc2cc3c(CN(C)C)c(O)ccc3nc2-1 | 7.63 |

Same assay, conditions: second compound 0.0949 µM; first compound 3.16 µM; hits give low values; spheroids with HUVEC and MSC

| Structure (SMILES) | viability, T/C [%] |
| --- | --- |
| CC(C)n1c(=O)n(C)c2cnc3cc(F)c(-c4ccc(OCCCN5CCCCC5)nc4)cc3c21 + CC[C@@]1(O)C(=O)OCc2c1cc1n(c2=O)Cc2cc3c(CN(C)C)c(O)ccc3nc2-1 | 7.78 |
| CC1COCCN1c1cc(-c2ccnn2C)c2ccnc(-c3ccn[nH]3)c2n1 (stereo unspecified) + CC[C@@]1(O)C(=O)OCc2c1cc1n(c2=O)Cc2cc3c(CN(C)C)c(O)ccc3nc2-1 | 3.73 |
| COc1cc(C)[nH]c(=O)c1CN1CCc2c(Cl)cc(C(OC)C3COC3)c(Cl)c2C1=O (stereo unspecified) + CC[C@@]1(O)C(=O)OCc2c1cc1n(c2=O)Cc2cc3c(CN(C)C)c(O)ccc3nc2-1 | 8.75 |
| COc1ccc([C@@H](O)c2cc(-c3ncnc4cc(N5CCOCC5)ccc34)c(F)cc2Cl)nn1 + CC[C@@]1(O)C(=O)OCc2c1cc1n(c2=O)Cc2cc3c(CN(C)C)c(O)ccc3nc2-1 | 3.45 |
| Cc1cc(C)c(CNC(=O)c2cc(-c3ccc(CN4CCOCC4)cc3)cc3c2cnn3C2CCCC2)c(=O)[nH]1 + CC[C@@]1(O)C(=O)OCc2c1cc1n(c2=O)Cc2cc3c(CN(C)C)c(O)ccc3nc2-1 | 6.69 |
| [2H]c1nc(C)nc([2H])c1-c1cc(NC[C@@H](C)c2cccc3c(C(=O)NC)ccnc23)ncn1 + CC[C@@]1(O)C(=O)OCc2c1cc1n(c2=O)Cc2cc3c(CN(C)C)c(O)ccc3nc2-1 | 7.79 |

Same assay, conditions: second compound 0.0949 µM; first compound 10 µM; hits give low values; spheroids with HUVEC and MSC

| Structure (SMILES) | viability, T/C [%] |
| --- | --- |
| CC(C)n1c(=O)n(C)c2cnc3cc(F)c(-c4ccc(OCCCN5CCCCC5)nc4)cc3c21 + CC[C@@]1(O)C(=O)OCc2c1cc1n(c2=O)Cc2cc3c(CN(C)C)c(O)ccc3nc2-1 | 6.17 |
| CC1COCCN1c1cc(-c2ccnn2C)c2ccnc(-c3ccn[nH]3)c2n1 (stereo unspecified) + CC[C@@]1(O)C(=O)OCc2c1cc1n(c2=O)Cc2cc3c(CN(C)C)c(O)ccc3nc2-1 | 3.78 |
| COc1cc(C)[nH]c(=O)c1CN1CCc2c(Cl)cc(C(OC)C3COC3)c(Cl)c2C1=O (stereo unspecified) + CC[C@@]1(O)C(=O)OCc2c1cc1n(c2=O)Cc2cc3c(CN(C)C)c(O)ccc3nc2-1 | 8.8 |
| COc1ccc([C@@H](O)c2cc(-c3ncnc4cc(N5CCOCC5)ccc34)c(F)cc2Cl)nn1 + CC[C@@]1(O)C(=O)OCc2c1cc1n(c2=O)Cc2cc3c(CN(C)C)c(O)ccc3nc2-1 | 1.55 |
| Cc1cc(C)c(CNC(=O)c2cc(-c3ccc(CN4CCOCC4)cc3)cc3c2cnn3C2CCCC2)c(=O)[nH]1 + CC[C@@]1(O)C(=O)OCc2c1cc1n(c2=O)Cc2cc3c(CN(C)C)c(O)ccc3nc2-1 | 6.41 |
| [2H]c1nc(C)nc([2H])c1-c1cc(NC[C@@H](C)c2cccc3c(C(=O)NC)ccnc23)ncn1 + CC[C@@]1(O)C(=O)OCc2c1cc1n(c2=O)Cc2cc3c(CN(C)C)c(O)ccc3nc2-1 | 9.29 |

Same assay, conditions: second compound 0.3 µM; first compound 0.0316 µM; hits give low values; spheroids with HUVEC and MSC

| Structure (SMILES) | viability, T/C [%] |
| --- | --- |
| CC(C)n1c(=O)n(C)c2cnc3cc(F)c(-c4ccc(OCCCN5CCCCC5)nc4)cc3c21 + CC[C@@]1(O)C(=O)OCc2c1cc1n(c2=O)Cc2cc3c(CN(C)C)c(O)ccc3nc2-1 | 8.38 |
| CC1COCCN1c1cc(-c2ccnn2C)c2ccnc(-c3ccn[nH]3)c2n1 (stereo unspecified) + CC[C@@]1(O)C(=O)OCc2c1cc1n(c2=O)Cc2cc3c(CN(C)C)c(O)ccc3nc2-1 | 5.64 |
| COc1cc(C)[nH]c(=O)c1CN1CCc2c(Cl)cc(C(OC)C3COC3)c(Cl)c2C1=O (stereo unspecified) + CC[C@@]1(O)C(=O)OCc2c1cc1n(c2=O)Cc2cc3c(CN(C)C)c(O)ccc3nc2-1 | 7.71 |
| COc1ccc([C@@H](O)c2cc(-c3ncnc4cc(N5CCOCC5)ccc34)c(F)cc2Cl)nn1 + CC[C@@]1(O)C(=O)OCc2c1cc1n(c2=O)Cc2cc3c(CN(C)C)c(O)ccc3nc2-1 | 7.33 |
| Cc1cc(C)c(CNC(=O)c2cc(-c3ccc(CN4CCOCC4)cc3)cc3c2cnn3C2CCCC2)c(=O)[nH]1 + CC[C@@]1(O)C(=O)OCc2c1cc1n(c2=O)Cc2cc3c(CN(C)C)c(O)ccc3nc2-1 | 5.68 |
| [2H]c1nc(C)nc([2H])c1-c1cc(NC[C@@H](C)c2cccc3c(C(=O)NC)ccnc23)ncn1 + CC[C@@]1(O)C(=O)OCc2c1cc1n(c2=O)Cc2cc3c(CN(C)C)c(O)ccc3nc2-1 | 8.56 |

Same assay, conditions: second compound 0.3 µM; first compound 0.1 µM; hits give low values; spheroids with HUVEC and MSC

| Structure (SMILES) | viability, T/C [%] |
| --- | --- |
| CC(C)n1c(=O)n(C)c2cnc3cc(F)c(-c4ccc(OCCCN5CCCCC5)nc4)cc3c21 + CC[C@@]1(O)C(=O)OCc2c1cc1n(c2=O)Cc2cc3c(CN(C)C)c(O)ccc3nc2-1 | 7.86 |
| CC1COCCN1c1cc(-c2ccnn2C)c2ccnc(-c3ccn[nH]3)c2n1 (stereo unspecified) + CC[C@@]1(O)C(=O)OCc2c1cc1n(c2=O)Cc2cc3c(CN(C)C)c(O)ccc3nc2-1 | 5.76 |
| COc1cc(C)[nH]c(=O)c1CN1CCc2c(Cl)cc(C(OC)C3COC3)c(Cl)c2C1=O (stereo unspecified) + CC[C@@]1(O)C(=O)OCc2c1cc1n(c2=O)Cc2cc3c(CN(C)C)c(O)ccc3nc2-1 | 9.03 |
